Tested on: pain hypersensitivity (allodynia) after chronic constriction injury to the sciatic nerve
Assay: Von Frey 50% withdrawal threshold in rats with chronic constriction injury to the sciatic nerve (neuropathic pain)
Type: in vivo, Sprague-Dawley rats
Conditions: allodynic rats, 500 ng single intrathecal injection
Procedure: Eleven adult, Sprague-Dawley rats received an experimental chronic constriction injury to the sciatic nerve (Mosconi & Kruger, 1996, Pain 64:37-57). Pain hypersensitivity, indicative of neuropathic pain, increased progressively over a two week interval and was monitored using the Von Frey technique (Chaplan et al., 1994, J. Neurosci. Methods 53:55-63). Following the development of allodynia (characterized by a 50% withdrawal threshold (WD50) of ≦2.0 g), rats were administered 500 ng tricyclodecan-9-yl-xanthogenate by intrathecal catheter, the tricyclodecan-9-yl-xanthogenate was prepared in a solution of saline (0.9% NaCl) with 10% v/v dimethyl sulfoxide. Tricyclodecan-9-yl-xanthogenate is available from EMD Biosciences (a division of Calbiochem). A solution of saline (0.9% NaCl) with 10% v/v dimethyl sulfoxide was injected into control rats as a vehicle. The volume of the vehicle administered was the same as for the PLCγ inhibitor solution.
Seven allodynic rats received single intrathecal injections of a vehicle, whereas 4 rats received single injections of tricyclodecan-9-yl-xanthogenate; the mean WD50 for both groups was 1.9±0.2 g prior to injections. […] This significant reduction of pain hypersensitivity persisted for greater than 6 hours.

With `S=C(S)OC1CC2CC1C1CCCC21` (centres unmarked) [tricyclodecan-9-yl-xanthogenate] the “persistence of significant reduction of pain hypersensitivity” value was “greater than 6 hours” and the “50% withdrawal threshold (WD50)” value (4 hours post-injection, pre-injection WD50 1.9±0.2 g, vehicle 4.1±0.7 g, p<0.05) was 8.8 ± 2.1 g.

Source: US7718382B2, “Method for identifying compounds for treatment of pain” (Universite Laval, priority 2004, dated 2010)
